Data as given in US6643591B1, “Use of computational and experimental data to model organic compound reactivity in cytochrome P450 mediated reactions and to optimize the design of pharmaceuticals” (University of Pittsburgh, priority 1998, dated 2003).
Values joined by “and” are separate entries in the source; they are usually repeats but may differ in a detail not shown here. Identical values can stand only once. Like-named read-outs stand apart in the source and are kept apart here. Marks after values point to notes of the source that are not given here.

Columns and labels:
CYP1A2 [1] = settings: O-deethylation favored; cited from earlier work
CYP [2] = experiment: Experimental product ratios for aromatic oxidation
Text: These equations may be solved with the data in Table 4, which provides experimental data for aromatic oxidation reactions with a number of substrates.
Experimental metabolite ratios may also be used to parameterize the aromatic oxidation reaction in a theoretical model for CYP reactions. As with hydrogen atom abstraction discussed in the previous Examples, experimental ratios of aromatic oxidation to an alternate position may be determined using various CYP enzymes. These substrates were chosen based on their small size, the presence of an alternate position for metabolism, and their hydrophobicity.
In order for the substrates to be useful, the average of the rotation rates in the active sites should be rapid. […] Several human expressed CYP enzymes were used in these studies, including CYP1A1, 1A2, 2A6, 2B6, 2C8, 2C9, 2D6, 2E1, 3A4, and 3A5. The use of multiple enzymes insures that a reasonable average of any orientation preferences within the active site (see FIG. 1).

CYP [3] = settings: cited from earlier work
P450cam = molecular target: T1, P450cam (Pseudomonas putida, UniProt P00183); experiment: Intramolecular isotope effects with purified P450cam; format: in vitro ADME, bacterial; settings: benzylic hydroxylation, -CH2D (d1) substrate
T1 construct: made in house
T1 sequence (P00183 2-415): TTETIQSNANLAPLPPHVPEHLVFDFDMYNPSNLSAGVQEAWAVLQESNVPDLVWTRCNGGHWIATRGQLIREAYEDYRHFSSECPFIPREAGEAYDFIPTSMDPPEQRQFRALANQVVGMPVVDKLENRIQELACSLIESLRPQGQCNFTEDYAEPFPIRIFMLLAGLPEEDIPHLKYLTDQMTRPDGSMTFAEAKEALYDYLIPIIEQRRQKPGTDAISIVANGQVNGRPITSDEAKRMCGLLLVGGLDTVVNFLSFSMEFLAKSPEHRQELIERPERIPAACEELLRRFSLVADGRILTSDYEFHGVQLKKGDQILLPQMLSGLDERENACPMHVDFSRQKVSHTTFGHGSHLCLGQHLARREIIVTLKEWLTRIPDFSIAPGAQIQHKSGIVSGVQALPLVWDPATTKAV
Protocol: For the intramolecular isotope effect experiments herein, a substrate is chosen that contains at least two symmetrical sites, with at least one site, but not all, isotopically labeled. A single concentration of substrate is incubated with enzyme, and the ratio of labeled to unlabeled compound in the isotopic mixture of products (or the corresponding rates of formation of products) are used to calculate a KIE.
Construction of expression plasmids for P450cam, Pd, and PdR as well as protein expression and purification have been described previously (Shimoji et al. (1998) Biochemistry 37, 8848-52).
Enzyme incubations with monodeuterated toluenes and p-xylene-α-^2H1-α′-^2H1 were performed in triplicate at a single substrate concentration of 0.25 mM. […] The kinetic parameters for metabolism of the substituted toluenes were determined by GC-MS analysis of the M-(dimethylsilyl) derivative of the product benzyl alcohols (see below).

CYP1A2 [4] = molecular target: T2, CYP1A2 (Homo sapiens, UniProt P05177)
T2 sequence (P05177 1-516): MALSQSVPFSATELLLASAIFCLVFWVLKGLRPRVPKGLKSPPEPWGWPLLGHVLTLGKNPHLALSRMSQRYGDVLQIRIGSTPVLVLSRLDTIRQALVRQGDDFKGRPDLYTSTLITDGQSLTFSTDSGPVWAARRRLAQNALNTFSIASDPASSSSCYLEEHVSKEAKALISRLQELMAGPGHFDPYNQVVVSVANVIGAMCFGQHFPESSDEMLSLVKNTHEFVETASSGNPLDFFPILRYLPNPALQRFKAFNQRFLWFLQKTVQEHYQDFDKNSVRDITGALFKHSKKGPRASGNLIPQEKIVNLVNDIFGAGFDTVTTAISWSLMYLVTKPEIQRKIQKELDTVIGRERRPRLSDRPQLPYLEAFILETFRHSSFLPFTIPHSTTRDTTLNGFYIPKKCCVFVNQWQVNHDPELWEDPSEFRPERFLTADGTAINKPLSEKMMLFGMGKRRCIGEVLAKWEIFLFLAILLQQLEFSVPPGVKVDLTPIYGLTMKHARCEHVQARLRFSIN

CYP2B1 = molecular target: T3, CYP2B1 (Rattus norvegicus, UniProt P00176)
T3 sequence (P00176 1-491): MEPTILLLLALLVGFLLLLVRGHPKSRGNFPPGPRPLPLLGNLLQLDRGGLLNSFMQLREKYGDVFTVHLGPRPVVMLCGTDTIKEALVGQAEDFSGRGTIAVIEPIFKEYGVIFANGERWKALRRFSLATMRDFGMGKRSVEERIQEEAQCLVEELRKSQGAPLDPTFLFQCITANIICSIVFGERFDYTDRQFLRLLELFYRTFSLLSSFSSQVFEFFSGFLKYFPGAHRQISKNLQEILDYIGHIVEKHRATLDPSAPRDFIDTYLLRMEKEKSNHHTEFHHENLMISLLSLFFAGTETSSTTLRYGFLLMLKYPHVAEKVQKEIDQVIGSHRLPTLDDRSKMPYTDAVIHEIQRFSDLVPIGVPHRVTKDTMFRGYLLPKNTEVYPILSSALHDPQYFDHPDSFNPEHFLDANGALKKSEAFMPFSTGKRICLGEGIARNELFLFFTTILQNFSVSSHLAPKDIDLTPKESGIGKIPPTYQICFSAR

CYP2C9 = CYP2C9 (Homo sapiens, UniProt P11712)
CYP2C9, sequence (P11712 whole entry): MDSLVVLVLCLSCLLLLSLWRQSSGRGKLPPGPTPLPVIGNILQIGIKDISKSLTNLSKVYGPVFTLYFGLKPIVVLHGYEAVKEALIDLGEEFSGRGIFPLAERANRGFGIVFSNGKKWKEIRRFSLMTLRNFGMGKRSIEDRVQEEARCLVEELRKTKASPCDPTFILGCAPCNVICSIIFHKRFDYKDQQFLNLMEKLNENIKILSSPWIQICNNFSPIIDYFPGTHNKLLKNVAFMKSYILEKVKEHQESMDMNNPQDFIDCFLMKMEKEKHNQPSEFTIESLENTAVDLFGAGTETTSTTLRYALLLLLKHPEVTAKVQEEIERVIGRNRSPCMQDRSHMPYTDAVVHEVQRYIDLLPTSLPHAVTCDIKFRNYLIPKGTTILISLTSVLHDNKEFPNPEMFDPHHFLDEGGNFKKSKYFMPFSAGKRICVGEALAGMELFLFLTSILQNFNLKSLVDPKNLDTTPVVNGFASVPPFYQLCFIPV

CYP2E1 = CYP2E1 (Homo sapiens, UniProt P05181)
CYP2E1, sequence (P05181 whole entry): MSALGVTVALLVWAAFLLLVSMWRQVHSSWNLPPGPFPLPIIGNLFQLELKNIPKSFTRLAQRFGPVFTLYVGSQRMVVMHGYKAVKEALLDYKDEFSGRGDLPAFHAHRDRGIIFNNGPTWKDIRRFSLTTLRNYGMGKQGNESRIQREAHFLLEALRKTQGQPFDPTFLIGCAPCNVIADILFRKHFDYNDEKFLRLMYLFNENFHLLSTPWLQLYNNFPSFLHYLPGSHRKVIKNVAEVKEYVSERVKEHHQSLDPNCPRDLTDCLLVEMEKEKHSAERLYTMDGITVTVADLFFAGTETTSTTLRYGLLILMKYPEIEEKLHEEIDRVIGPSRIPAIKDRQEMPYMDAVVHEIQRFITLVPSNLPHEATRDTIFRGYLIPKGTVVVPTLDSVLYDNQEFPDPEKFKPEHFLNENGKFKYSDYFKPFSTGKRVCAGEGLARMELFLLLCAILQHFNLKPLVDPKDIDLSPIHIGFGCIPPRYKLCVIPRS

CYP [5] = experiment: Activation energy differences from experimental regioselectivity of substrates in rapid equilibrium; format: in vitro ADME; parameters: unit not given here; settings: difference in activation energy calculated by the experimental regioselectivity
Text: Five substrates shown to undergo rapid equilibrium between positions of metabolism have been used to prepare data for regression and then correlation with Eq. 1. The differences in activation energy calculated by the experimental regioselectivity of the substrates, along with the differences in AM1 activation enthalpies, are given in Table 1. Regression of the experimental data gives a slope correction for AM1 activation energies of 0.75±0.20.

CYP2B6 = molecular target: T4, CYP2B6 (Homo sapiens, UniProt P20813)
T4 sequence (P20813 1-491): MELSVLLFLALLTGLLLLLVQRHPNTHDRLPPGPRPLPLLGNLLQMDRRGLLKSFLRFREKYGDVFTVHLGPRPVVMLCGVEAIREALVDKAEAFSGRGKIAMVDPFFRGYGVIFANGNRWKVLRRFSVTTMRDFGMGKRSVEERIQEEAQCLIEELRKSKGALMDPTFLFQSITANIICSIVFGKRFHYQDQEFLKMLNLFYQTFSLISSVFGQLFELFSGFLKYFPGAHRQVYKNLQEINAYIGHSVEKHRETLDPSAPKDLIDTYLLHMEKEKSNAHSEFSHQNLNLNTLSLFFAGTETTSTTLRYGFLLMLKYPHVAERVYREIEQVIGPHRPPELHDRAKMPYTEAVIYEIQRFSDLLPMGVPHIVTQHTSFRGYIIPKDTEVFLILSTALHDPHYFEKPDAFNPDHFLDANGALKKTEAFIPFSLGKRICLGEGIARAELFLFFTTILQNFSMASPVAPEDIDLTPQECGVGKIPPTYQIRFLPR

CYP4B1 = CYP4B1 (Oryctolagus cuniculus, UniProt P15128)
CYP4B1, sequence (P15128 whole entry): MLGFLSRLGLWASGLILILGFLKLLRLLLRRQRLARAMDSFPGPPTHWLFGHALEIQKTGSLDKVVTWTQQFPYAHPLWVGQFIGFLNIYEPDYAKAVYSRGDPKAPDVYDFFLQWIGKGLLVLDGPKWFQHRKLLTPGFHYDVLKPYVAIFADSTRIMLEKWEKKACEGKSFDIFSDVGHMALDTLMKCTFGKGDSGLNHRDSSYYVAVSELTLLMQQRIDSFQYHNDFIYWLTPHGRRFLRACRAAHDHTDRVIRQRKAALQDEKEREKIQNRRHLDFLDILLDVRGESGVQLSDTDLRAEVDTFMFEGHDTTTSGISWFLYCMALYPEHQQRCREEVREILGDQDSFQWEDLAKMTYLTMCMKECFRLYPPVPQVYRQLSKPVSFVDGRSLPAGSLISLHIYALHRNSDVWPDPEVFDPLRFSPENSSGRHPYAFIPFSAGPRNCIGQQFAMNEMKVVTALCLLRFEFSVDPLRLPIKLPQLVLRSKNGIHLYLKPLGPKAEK

SMILES: CCOc1ccc2ccc(=O)oc2c1 [7-ethoxycoumarin]
- Energy difference between O-deethylation and aromatic hydroxylation pathways (CYP1A2 [1]): about 1.8 kcal/mol

SMILES: COc1ccccc1 [Anisole]
- Experimental Ratio (CYP [2]; human): 10.6
- Relative difference in energy for p-hydroxylation and demethylation (CYP [3]; calculated from the product ratios of Lindsay Smith et al.): 0.6 kcal/mol
- Intermolecular isotope effect (Lindsay Smith et al.) (CYP [3]; deuteration of the methyl group): 7
- Ratio of p-hydroxyanisole to phenol, average (CYP [3]; four microsomal systems (Lindsay Smith)): 2.9

SMILES: Cc1ccc(Br)cc1 [Br, p-bromotoluene]
- Intramolecular KIE (kH/kD) (P450cam): 8.3
- Intramolecular KIE (kH/kD) (CYP1A2 [4]; pH 7.4): 6.83 (8)
- Intramolecular KIE (kH/kD) (CYP2B1): 8.02
- Intramolecular KIE (kH/kD) (CYP2C9; human, pH 7.4): 6.9
- Intermolecular Noncompetitive ^DV (CYP2E1; pH 7.4): 1.07 ± 0.04

SMILES: [2H]C([2H])([2H])c1ccc(Br)cc1 [Br-d3]
- V/K (CYP2E1): 0.027 min⁻¹
- Vmax (CYP2E1): 54.8 nM/min

SMILES: [2H]Cc1ccc(C[2H])cc1 [CH2D, p-Xylene-α-^2H1-α′-^2H1]
- Intramolecular KIE (kH/kD) (P450cam): 6.0
- Intramolecular KIE (kH/kD) (CYP1A2 [4]): 5.59 (1)
- Intramolecular KIE (kH/kD) (CYP2B1): 6.23
- Intramolecular KIE (kH/kD) (CYP2C9): 5.9
- Intramolecular KIE (kH/kD) (CYP2E1): 5.45 (5)

SMILES: Cc1ccc(C)cc1 [CH3, p-xylene]
- Intermolecular Competitive ^D(V/K) (CYP2E1; pH 7.4): 1.18 ± 0.03
- Intermolecular Noncompetitive ^D(V/K) (CYP2E1; pH 7.4): 1.19 ± 0.01
- Intermolecular Noncompetitive ^DV (CYP2E1; pH 7.4): 1.05 ± 0.03
- Intramolecular KIE (kH/kD) (CYP2E1; pH 7.4): 5.45 ± 0.05
- Benzylic hydroxylation, share of total oxidation / metabolism (CYP [3]; depending on the source of CYP): ~95%

SMILES: Cc1ccc(C#N)cc1 [CN, p-tolunitrile]
- Intramolecular KIE (kH/kD) (P450cam): 11.6
- Intramolecular KIE (kH/kD) (CYP1A2 [4]; pH 7.4): 10.1 (2)
- Intramolecular KIE (kH/kD) (CYP2B1): 11.9
- Intramolecular KIE (kH/kD) (CYP2C9; human, pH 7.4): 11.1
- Intramolecular KIE (kH/kD) (CYP2E1; pH 7.4): 10.1 (1)

SMILES: Cc1ccc(Cl)cc1 [Cl, p-chlorotoluene]
- Intramolecular KIE (kH/kD) (P450cam): 6.5
- Intermolecular Competitive ^D(V/K) (CYP2B1): 3.21 ± 0.02
- Intramolecular KIE (kH/kD) (CYP2B1): 8.1 and 8.06 ± 0.12
- Intramolecular KIE (kH/kD) (CYP2C9; human, pH 7.4): 6.2
- Intermolecular Noncompetitive ^DV (CYP2E1; pH 7.4): 1.61 ± 0.01

SMILES: [2H]C([2H])([2H])c1ccc(Cl)cc1 [Cl-d3]
- V/K (CYP2E1): 0.020 min⁻¹
- Vmax (CYP2E1): 31.4 nM/min

SMILES: CCc1ccccc1 [Ethylbenzene]
- Experimental Ratio (CYP [2]; Arom/benz): 0.086

SMILES: Cc1ccccc1 [H, toluene]
- Intramolecular KIE (kH/kD) (CYP1A2 [4]; pH 7.4): 6.1 (4)
- Intramolecular KIE (kH/kD) (CYP2B1): 7
- Intramolecular KIE (kH/kD) (CYP2E1; pH 7.4): 6.1 (1)
- Isotope effect measured by White and McCarthy (CYP [3]): 2

SMILES: CCCCCCCC [Octane]
- ΔΔG (experimental) (CYP [5]): −3.13
- Average P value (primary KIE) (CYP [3]; Jones et al. 1987): 7.6

SMILES: CCCC(CCC)C(=O)O [Valproate]
- ΔΔG (experimental) (CYP [5]): −2.48

SMILES: [2H]C([2H])([2H])c1ccccc1OC [o-Methylanisole-α-^2H3]
- nmol 4M3MPh (CYP1A2 [4]): 11.5* nmol
- nmol TP (CYP1A2 [4]): 17.2 nmol
- nmol o-CR (CYP1A2 [4]): 4.2* nmol
- nmol o-MBA (CYP1A2 [4]): 1.52* nmol
- nmol 4M3MPh (CYP2B1): 13* nmol
- nmol TP (CYP2B1): 17* nmol
- nmol o-CR (CYP2B1): 2.8* nmol
- nmol o-MBA (CYP2B1): 0.36* nmol
- nmol 4M3MPh (CYP2B6): 3.3 nmol
- nmol TP (CYP2B6): 22 nmol
- nmol o-CR (CYP2B6): 17* nmol
- nmol o-MBA (CYP2B6): 0.95* nmol
- nmol TP (CYP2C9): 3.9* nmol
- nmol o-CR (CYP2C9): 1.4* nmol
- nmol o-MBA (CYP2C9): 0.7* nmol
- nmol 4M3MPh (CYP2E1): 13* nmol
- nmol TP (CYP2E1): 19* nmol
- nmol o-CR (CYP2E1): 4.7* nmol
- nmol o-MBA (CYP2E1): 0.99* nmol
- nmol 4M3MPh (CYP4B1): 1.9* nmol
- nmol TP (CYP4B1): 55 nmol
- nmol o-CR (CYP4B1): 50* nmol
- nmol o-MBA (CYP4B1): 3.5* nmol

SMILES: [2H]C([2H])([2H])Oc1ccc(C)cc1 [p-Methylanisole-α-^2H3]
- nmol p-CR (CYP2B1): 3.3* nmol
- nmol p-MBA (CYP2B1): 0.9* nmol
- nmol total TP (CYP2B1): 4.2* nmol
- nmol p-CR (CYP2B6): 9* nmol
- nmol p-MBA (CYP2B6): 2.39* nmol
- nmol total TP (CYP2B6): 11 nmol
- Vmax (CYP2E1): 18.0 nM/min
- nmol p-CR (CYP2E1): 18.2* nmol
- nmol p-MBA (CYP2E1): 10.6* nmol
- nmol total TP (CYP2E1): 29 nmol
- nmol p-CR (CYP4B1): 52* nmol
- nmol p-MBA (CYP4B1): 48* nmol
- nmol total TP (CYP4B1): 100* nmol

SMILES: [2H]C([2H])([2H])c1ccc(CCl)cc1 [α-Chloromethyl-p-xylene-α′-^2H3]
- nmol TP (CYP1A2 [4]): 47 nmol
- nmol p-Alc (CYP1A2 [4]): 1.3* nmol
- nmol p-Ald + TolA (CYP1A2 [4]): 46 nmol
- nmol TP (CYP2B1): 21.3 nmol
- nmol p-Alc (CYP2B1): 1.3* nmol
- nmol p-Ald + TolA (CYP2B1): 20.0* nmol
- nmol TP (CYP2B6): 14* nmol
- nmol p-Alc (CYP2B6): 1.82* nmol
- nmol p-Ald + TolA (CYP2B6): 12* nmol
- nmol TP (CYP2C9): 1.8* nmol
- nmol p-Alc (CYP2C9): 0.10* nmol
- nmol p-Ald + TolA (CYP2C9): 1.7* nmol
- nmol TP (CYP2E1): 31 nmol
- nmol p-Alc (CYP2E1): 0.78* nmol
- nmol p-Ald + TolA (CYP2E1): 30 nmol
- nmol TP (CYP4B1): 17.0* nmol
- nmol p-Alc (CYP4B1): 15.2* nmol
- nmol p-Ald + TolA (CYP4B1): 1.87* nmol
